From PMC4363092 (Journal of medicinal chemistry, 2014)
“And” between values parts separate entries of the source, which are not always exact repeats. Equal entries are not always repeated. “Also recorded” adds a separate entry of the source. Where two headings read alike, the source gives them in different places.

How the values were obtained:
human NTPDase1 = target: T1, human NTPDase1 (Homo sapiens, UniProt P49961); details: analogue 100 μM as substrate; activity with 100 μM ATP set as 100%
T1 sequence (P49961 1-510): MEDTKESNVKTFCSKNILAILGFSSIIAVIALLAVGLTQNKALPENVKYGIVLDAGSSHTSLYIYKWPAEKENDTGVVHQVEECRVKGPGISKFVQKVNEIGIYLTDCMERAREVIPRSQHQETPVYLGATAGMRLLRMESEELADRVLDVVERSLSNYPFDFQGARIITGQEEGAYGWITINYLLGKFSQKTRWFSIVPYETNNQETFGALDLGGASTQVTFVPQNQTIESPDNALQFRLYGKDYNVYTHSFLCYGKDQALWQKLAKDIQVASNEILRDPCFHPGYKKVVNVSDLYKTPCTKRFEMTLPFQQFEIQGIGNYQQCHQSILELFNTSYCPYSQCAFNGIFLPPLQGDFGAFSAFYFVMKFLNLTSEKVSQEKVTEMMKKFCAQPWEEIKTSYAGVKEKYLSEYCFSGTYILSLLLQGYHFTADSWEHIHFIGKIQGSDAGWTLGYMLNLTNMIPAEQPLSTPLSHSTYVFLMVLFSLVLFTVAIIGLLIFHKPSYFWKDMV

P2Y11 receptor [1] = target: T2, P2Y11 receptor (Homo sapiens, UniProt Q96G91); experiment: [Ca2+]i elevation in 1321N1 astrocytoma cells expressing GFP-P2Y11 receptor; type: cell-based; details: for potency relative to ATP at the P2Y11 receptor: more potent than ATP
T2 sequence (Q96G91 1-374): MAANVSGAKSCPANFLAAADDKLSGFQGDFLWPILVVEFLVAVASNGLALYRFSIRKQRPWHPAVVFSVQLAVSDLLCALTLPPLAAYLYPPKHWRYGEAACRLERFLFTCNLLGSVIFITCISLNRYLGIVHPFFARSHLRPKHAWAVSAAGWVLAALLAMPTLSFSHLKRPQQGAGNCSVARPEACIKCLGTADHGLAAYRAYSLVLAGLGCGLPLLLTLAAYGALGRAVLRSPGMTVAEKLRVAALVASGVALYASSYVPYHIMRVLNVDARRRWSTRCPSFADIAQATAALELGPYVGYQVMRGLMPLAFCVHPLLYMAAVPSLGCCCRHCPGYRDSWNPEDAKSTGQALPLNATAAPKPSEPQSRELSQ

human NTPDase2 = target: T3, human NTPDase2 (Homo sapiens, UniProt Q9Y5L3); details: analogue 100 μM as substrate; activity with 100 μM ATP set as 100%
T3 sequence (Q9Y5L3 1-495): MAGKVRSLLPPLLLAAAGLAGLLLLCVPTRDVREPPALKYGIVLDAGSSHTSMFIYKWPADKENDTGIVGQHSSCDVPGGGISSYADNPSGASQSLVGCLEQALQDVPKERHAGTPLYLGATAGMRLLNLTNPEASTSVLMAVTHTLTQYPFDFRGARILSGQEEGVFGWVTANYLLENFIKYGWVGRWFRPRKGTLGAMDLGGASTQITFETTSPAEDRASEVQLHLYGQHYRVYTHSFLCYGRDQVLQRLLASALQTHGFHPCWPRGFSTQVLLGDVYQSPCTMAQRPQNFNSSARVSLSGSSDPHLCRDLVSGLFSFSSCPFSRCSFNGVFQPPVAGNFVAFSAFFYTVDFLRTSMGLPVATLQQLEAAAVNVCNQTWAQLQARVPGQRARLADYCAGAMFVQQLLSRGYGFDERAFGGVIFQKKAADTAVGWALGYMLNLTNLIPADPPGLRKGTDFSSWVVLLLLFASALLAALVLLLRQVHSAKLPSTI

human NTPDase8 = target: T4, human NTPDase8 (Homo sapiens, UniProt Q5MY95); details: analogue 100 μM as substrate; activity with 100 μM ATP set as 100%
T4 sequence (Q5MY95 1-495): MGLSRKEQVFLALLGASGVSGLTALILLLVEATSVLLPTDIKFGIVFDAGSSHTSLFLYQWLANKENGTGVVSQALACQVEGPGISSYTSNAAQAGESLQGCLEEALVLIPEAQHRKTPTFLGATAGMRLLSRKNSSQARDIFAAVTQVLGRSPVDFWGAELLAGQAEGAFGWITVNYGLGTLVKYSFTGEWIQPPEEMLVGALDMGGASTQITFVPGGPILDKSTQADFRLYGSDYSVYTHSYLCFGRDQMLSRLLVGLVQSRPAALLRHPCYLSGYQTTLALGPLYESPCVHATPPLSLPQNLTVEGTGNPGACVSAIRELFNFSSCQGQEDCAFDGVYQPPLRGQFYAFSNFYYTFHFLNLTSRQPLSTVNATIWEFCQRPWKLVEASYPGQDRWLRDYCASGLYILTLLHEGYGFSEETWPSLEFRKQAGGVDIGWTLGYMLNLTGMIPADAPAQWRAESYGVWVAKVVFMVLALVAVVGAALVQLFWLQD

human NTPDase3 = target: T5, human NTPDase3 (Homo sapiens, UniProt O75355); details: analogue 100 μM as substrate; activity with 100 μM ATP set as 100%
T5 sequence (O75355 1-529): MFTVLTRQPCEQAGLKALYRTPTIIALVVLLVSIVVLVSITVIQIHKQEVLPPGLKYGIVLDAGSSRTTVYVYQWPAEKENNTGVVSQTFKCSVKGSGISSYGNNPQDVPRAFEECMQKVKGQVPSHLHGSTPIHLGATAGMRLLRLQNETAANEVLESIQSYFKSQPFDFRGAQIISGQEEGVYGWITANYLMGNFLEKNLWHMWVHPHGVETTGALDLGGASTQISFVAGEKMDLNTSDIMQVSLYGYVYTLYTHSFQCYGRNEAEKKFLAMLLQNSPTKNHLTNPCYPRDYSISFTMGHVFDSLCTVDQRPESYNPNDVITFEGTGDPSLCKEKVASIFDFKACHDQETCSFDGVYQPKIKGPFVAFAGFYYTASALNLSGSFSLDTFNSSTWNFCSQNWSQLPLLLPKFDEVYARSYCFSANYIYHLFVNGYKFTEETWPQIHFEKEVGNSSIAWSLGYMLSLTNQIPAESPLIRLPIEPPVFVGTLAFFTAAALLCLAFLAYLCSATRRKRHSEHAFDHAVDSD

human NTPDase1,2,3,8 = experiment: Inhibition of NTPDase activity, text statements pooled over NTPDase1,2,3,8; type: biochemical; details: analogue 100 μM, pooled over four NTPDases
NPP1 = details: cited from earlier work; for Ki: read-out: Ki, NPP1
human NPP1 = target: T6, human NPP1 (Homo sapiens, UniProt P22413); experiment: Inhibition of NPP1, pNP-TMP as substrate; type: biochemical; details: Dixon and Cornish–Bowden methods
T6 sequence (P22413 1-925): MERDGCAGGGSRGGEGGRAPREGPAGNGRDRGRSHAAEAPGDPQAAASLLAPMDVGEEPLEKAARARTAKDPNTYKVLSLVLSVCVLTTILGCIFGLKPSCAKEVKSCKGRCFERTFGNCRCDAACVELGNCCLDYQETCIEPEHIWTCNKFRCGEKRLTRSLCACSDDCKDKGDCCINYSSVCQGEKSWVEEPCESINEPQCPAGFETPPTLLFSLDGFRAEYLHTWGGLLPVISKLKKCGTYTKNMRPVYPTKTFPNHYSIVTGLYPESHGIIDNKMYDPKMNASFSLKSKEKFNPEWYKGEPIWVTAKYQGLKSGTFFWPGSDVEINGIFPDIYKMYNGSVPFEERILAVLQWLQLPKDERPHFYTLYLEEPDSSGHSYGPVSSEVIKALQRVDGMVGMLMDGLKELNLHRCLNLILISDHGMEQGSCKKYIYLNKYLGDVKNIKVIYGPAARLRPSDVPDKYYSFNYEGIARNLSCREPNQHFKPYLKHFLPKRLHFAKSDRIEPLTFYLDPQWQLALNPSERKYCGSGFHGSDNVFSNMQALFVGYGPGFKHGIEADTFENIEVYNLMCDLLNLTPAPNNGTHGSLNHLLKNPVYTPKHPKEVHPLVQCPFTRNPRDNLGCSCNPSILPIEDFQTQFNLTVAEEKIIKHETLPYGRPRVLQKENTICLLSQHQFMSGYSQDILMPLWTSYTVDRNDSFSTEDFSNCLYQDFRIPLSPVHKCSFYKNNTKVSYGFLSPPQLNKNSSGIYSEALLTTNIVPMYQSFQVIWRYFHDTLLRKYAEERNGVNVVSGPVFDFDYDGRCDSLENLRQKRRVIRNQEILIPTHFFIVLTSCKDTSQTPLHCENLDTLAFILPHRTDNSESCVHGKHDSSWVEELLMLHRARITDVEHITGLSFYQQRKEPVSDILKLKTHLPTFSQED

P2Y11 receptor [2] = details: cited from earlier work; for potency relative to ATP at the P2Y11 receptor: higher potency than ATP

Compound | relative activity (%) ± SD of ATP hydrolysis, NTPDase1 (human NTPDase1) | relative activity (%) ± SD of ATP hydrolysis, NTPDase2 (human NTPDase2) | relative activity (%) ± SD of ATP hydrolysis, NTPDase8 (human NTPDase8) | relative activity (%) ± SD of ATP hydrolysis, NTPDase3 (human NTPDase3) | inhibition of ATP hydrolysis by NTPDase1,2,3,8 (human NTPDase1,2,3,8) | further results
Nc1ncnc2c1ncn2[C@@H]1O[C@H](CO[P@](O)(=S)OP(=O)(O)CP(=O)(O)O)[C@@H](O)[C@H]1O [1a] | 4.4 ± 0.2% | 4.7 ± 1.7% | 4.4 ± 0.2% | 4.2 ± 0.2% | did not interfere | EC50 ± SEM (μM), [Ca^2+]i elevation, P2Y11 (P2Y11 receptor [1]; 1321N1 cells, nr = no response up to 10 μM): not agonists; also recorded: inactive; also recorded: not active, nr ^c
Nc1ncnc2c1ncn2[C@H]1C[C@H](O)[C@@H](COP(=O)(O)CP(=O)(O)OP(=O)(O)OP(=O)(O)CP(=O)(O)OC[C@H]2O[C@@H](n3cnc4c(N)ncnc43)C[C@@H]2O)O1 [bis(2′-deoxyadenosine) α,β:δ,ε-dimethylenepentaphosphonate] |  |  |  |  |  | IC50 (NPP1; read-out: IC50, NPP1): 13 µM; Ki (NPP1): 9 µM
Nc1ncnc2c1ncn2[C@@H]1O[C@H](CO[P@@](O)(=S)OP(=O)(O)CP(=O)(O)O)[C@@H](O)[C@H]1O [1b] | 5.4 ± 0.2% | 5.5 ± 0.3% | 5.3 ± 0.2% | 4.8 ± 0.2% | did not interfere | potency relative to ATP at the P2Y11 receptor (P2Y11 receptor [1]): 7 fold and ~ 7 fold; type of inhibition (human NPP1): mixed-type inhibition, predominantly competitive
CCCSc1nc(N)c2ncn([C@@H]3O[C@H](COP(O)(=S)OP(=O)(O)C(Cl)(Cl)P(=O)(O)O)[C@@H](O)[C@H]3O)c2n1 (single isomer, unassigned; isomer a) [2-(propylthio)adenosine 5′-α-thio-β,γ-(dichloromethylene)-triphosphate, isomer A, 2-(propylthio)adenosine 5′-α-thio-β,γ-(dichloromethylene)-triphosphate] |  |  |  |  |  | potency relative to ATP at the P2Y11 receptor (P2Y11 receptor [2]): ~ 3 fold
BP(=O)(OC[C@H]1O[C@@H](n2cnc3c(N)ncnc32)[C@H](O)[C@@H]1O)OP(=O)(O)CP(=O)(O)O (single isomer, unassigned; isomer a) [adenosine 5′-α-borano-β,γ-methylenetriphosphate (isomer A), adenosine 5′-α-borano-β,γ-methylenetriphosphate] |  |  |  |  |  | Ki (NPP1; ref 22 (b65 prints ref 44)): 0.5 µM
Nc1ncnc2c1ncn2[C@@H]1O[C@H](CO[P@](=O)(O)O[P@](=O)(O)O[P@@](=O)(O)S)[C@@H](O)[C@H]1O [ATP-γ-S] |  |  |  |  |  | pEC50, P2Y11 receptor (P2Y11 receptor [2]): 5.52
CCCSc1nc(N)c2ncn([C@@H]3O[C@H](COP(O)(=S)OP(=O)(O)C(Cl)(Cl)P(=O)(O)O)[C@@H](O)[C@H]3O)c2n1 (single isomer, unassigned; isomer b) [2-(propylthio)adenosine 5′-α-thio-β,γ-(dichloromethylene)-triphosphate, isomer B, 2-(propylthio)adenosine 5′-α-thio-β,γ-(dichloromethylene)-triphosphate] |  |  |  |  |  | potency relative to ATP at the P2Y11 receptor (P2Y11 receptor [2]): ~ 4 fold
Nc1ncnc2c1nc(S)n2[C@@H]1O[C@H](COP(=O)(O)OP(=O)(O)OP(=O)(O)O)[C@@H](O)[C@H]1O [compound 4] | 43 ± 2% | 73 ± 2% | 73 ± 1% | 51 ± 3% |  | 
Nc1ncnc2c1ncn2[C@@H]1O[C@H](CO[P@@](O)(=S)OP(=O)(O)C(Cl)(Cl)P(=O)(O)O)[C@@H](O)[C@H]1O [2b] | 5.4 ± 0.2% | 5.5 ± 0.2% | 5.3 ± 0.2% | 5.4 ± 0.2% | did not interfere | EC50 (P2Y11 receptor [1]): 3 ± 1.46 µM; potency relative to ATP at the P2Y11 receptor (P2Y11 receptor [1]): 2 fold and ~ 2 fold; type of inhibition (human NPP1): mixed-type inhibition, predominantly competitive
